Experimental data taken from patent publication US8999956B2, “N-[(het)arylalkyl)] pyrazole(thio)carboxamides and their heterosubstituted analogues” (Bayer Intellectual Property GmbH, priority 2010, dated 2015).
Values joined by “and” are separate entries in the source; they are usually repeats but may differ in a detail not shown here. Identical values can stand only once. Like-named read-outs stand apart in the source and are kept apart here.

Key:
[1] = system: Septoria tritici; assay: In vivo preventive test on Septoria tritici (wheat); settings: 500 ppm of active ingredient, evaluated 21 days after inoculation
How it was run: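 Compound formulated in N,N-dimethylacetamide with alkylaryl polyglycol ether emulsifier and diluted in water to the stated rate. Young wheat plants sprayed preventively; after the deposit dried, they were inoculated with a Septoria tritici spore suspension.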

[2] = system: Phakopsora pachyrhizi; assay: In vivo protective test on Phakopsora pachyrhizi (soybeans); settings: Table N, 250 ppm of active ingredient, evaluated 11 days after inoculation
[3] = system: Pyrenophora teres; assay: In vivo preventive test on Pyrenophora teres (barley); settings: 500 ppm of active ingredient, evaluated 7-9 days after inoculation
How it was run: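 Preventive test: young barley plants received a water-diluted spray of compound formulated with DMF solvent plus alkylaryl polyglycol ether emulsifier, at the stated rate. Inoculation with an aqueous spore suspension of Pyrenophora teres followed one day after spraying.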

[4] = system: aflatoxines produced by Aspergillus parasiticus; assay: microbe, parasite or virus in culture; type: cell-based
[5] = system: Uromyces appendiculatus; assay: In vivo preventive test on Uromyces appendiculatus (beans); settings: 100 ppm of active ingredient, evaluated 10 days after inoculation
How it was run: (§1)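 Young plants sprayed preventively at the stated application rate with compound dissolved in acetone/N,N-dimethylacetamide plus alkylaryl polyglycol ether emulsifier and diluted with water to the desired concentration.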

[6] = system: Puccinia triticina; assay: In vivo preventive test on Puccinia triticina (wheat); settings: Table K, 500 ppm of active ingredient, evaluated 8 days after inoculation
[7] = log P by HPLC on reversed-phase column (EEC Directive 79/831 Annex V.A8); type: physicochemical
Method: In table 1, the log P values were determined in accordance with EEC Directive 79/831 Annex V.A8 by HPLC (High Performance Liquid Chromatography) on a reversed-phase column (C18), using the method described below: Temperature: 40° C.; […]

[8] = system: Blumeria graminis fsp. hordei; assay: In vivo preventive test on Blumeria graminis (barley); settings: 500 ppm of active ingredient, evaluated 7 days after inoculation
How it was run: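 Active compound taken up in N,N-dimethylacetamide with alkylaryl polyglycol ether emulsifier, then diluted in water to the desired concentration. Young barley plants sprayed at the stated application rate; once the coating had dried, plants were dusted with Blumeria graminis f. sp. hordei spores.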

[9] = system: Alternaria solani; assay: In vivo preventive test on Alternaria solani (tomato); settings: 500 ppm of active ingredient, evaluated 7 days after inoculation
How it was run: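 Preventive set-up: Alternaria solani spores, as aqueous suspension, applied to young plants one day after spraying. Spray contained active compound formulated with N,N-dimethylformamide and emulsifier, water-diluted to the desired application rate.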

[10] = system: Sphaerotheca fuliginea; assay: In vivo preventive test on Sphaerotheca fuliginea (cucumber); settings: 500 ppm of active ingredient, evaluated 7 days after inoculation
How it was run: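 Young cucumber plants sprayed with compound (in DMF with alkylarylpolyglycolether emulsifier, diluted in water) at the stated application rate. Inoculated one day later with aqueous Sphaerotheca fuliginea spore suspension. Plants then held in greenhouse at approximately 23° C and approximately 70% relative humidity.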

[11] = system: Aspergillus parasiticus; assay: microbe, parasite or virus in culture; type: cell-based
[12] = system: Fusarium graminearum; settings: in vivo
[13] = system: Venturia inaequalis; assay: In vivo preventive test on Venturia inaequalis (apple scab); settings: 100 ppm of active ingredient, evaluated 10 days after inoculation
How it was run: as §1

[14] = system: Leptosphaeria nodorum; assay: In vivo preventive test on Leptosphaeria nodorum (wheat); settings: 500 ppm of active ingredient, evaluated 7-9 days after inoculation
How it was run: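 Plants were inoculated with aqueous L. nodorum spores one day after a protective spray. The spray contained the compound at the stated rate, as a water-diluted concentrate in N,N-dimethylacetamide plus alkylaryl polyglycol ether emulsifier.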

[15] = system: Botrytis cinerea; assay: In vivo preventive test on Botrytis cinerea (beans); settings: Table L, 500 ppm of active ingredient, lesion size 2 days after inoculation
How it was run: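 Young bean plants sprayed preventively with compound in acetone/dimethylacetamide/emulsifier diluted in water; after drying, each leaf inoculated with 2 agar pieces bearing Botrytis cinerea. Kept dark at 20° C, 100% humidity; lesion size scored at 2 days as % efficacy (0% = untreated, 100% = no disease).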

[16] = system: Fusarium nivale (var. majus); assay: In vivo preventive test on Fusarium nivale (wheat); settings: 500 ppm of active ingredient, evaluated 5 days after inoculation
How it was run: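 Young wheat plants sprayed preventively with compound formulated in N,N-dimethylacetamide plus alkylaryl polyglycol ether emulsifier, diluted in water to the stated application rate. After drying, plants were lightly injured by sandblast, then sprayed with a Fusarium nivale (var. majus) conidia suspension.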

[17] = system: Pyricularia oryzae; settings: in vivo
[18] = system: Cochliobolus miyabeanus; assay: In vivo protective test on Cochliobolus miyabeanus (rice); settings: Table M, 250 ppm of active ingredient, evaluated 4 days after inoculation

| Structure (SMILES) | Efficacy [1] [%] | Efficacy [2] [%] | Efficacy [3] [%] | % Inhibition of Aflatoxin at 50 μM [4] [%] | Efficacy [5] [%] | Efficacy [6] [%] | logP [7] | Efficacy [8] [%] | Efficacy [9] [%] | Efficacy [10] [%] | % Inhibition of fungal growth at 50 μM [11] [%] | Efficacy [12] [%] | Efficacy [13] [%] | Efficacy [14] | Efficacy [15] [%] | Efficacy [16] [%] | % Inhibition of Aflatoxin at 50 μM ([4]; 50 µM) [%] | Efficacy [17] [%] | % Inhibition of fungal growth at 50 μM ([11]; 50 µM) [%] | Efficacy [18] [%] |
| --- | --- | --- | --- | --- | --- | --- | --- | --- | --- | --- | --- | --- | --- | --- | --- | --- | --- | --- | --- | --- |
| CC(CCc1ccccc1C(F)(F)F)N(C(=O)c1c(C(F)F)nn(C)c1F)C1CC1 (centres unmarked) [Example 221] | 100 | 80 | 95 | 100 | 100 | 100 | 4.09 | 100 | 100 | 100 | 100 | 100 | 100 |  |  |  |  |  |  |  |
| Cn1nc(C(F)F)c(C(=O)N(C[Si](C)(C)Cc2ccccc2)C2CC2)c1F [Example 288] | 90 |  | 100 | 100 | 100 | 95 | 4.03 | 100 | 100 | 94 | 99 | 100 | 100 | 100% | 100 |  |  |  |  |  |
| CC(C)CC(C)C1CCCC1NC(=O)c1c(C(F)F)nn(C)c1Cl (mixture of isomers) [Example 311] | 93 | 98 | 100 |  | 100 | 100 |  | 100 | 100 | 90 |  |  | 100 |  |  | 100 | 100 | 96 | 97 | 97 |
| CCCCC1CCCCC1NC(=O)c1c(C(F)F)nn(C)c1F (single isomer, unassigned) [Example 329] | 100 |  | 100 | 100 | 100 | 100 | 3.80 isomer A | 100 | 100 | 100 |  |  | 100 | 90% | 99 | 100 |  | 98 | 97 | 98 |
| CC(C)CC(C)C1CCCCC1NC(=O)c1c(C(F)F)nn(C)c1F (centres unmarked) [Example 339] | 100 | 98 | 94 | 100 | 100 | 100 | 4.54 | 100 | 100 | 100 | 100 |  | 100 | 70% and 94% |  | 100 |  | 98 |  | 92 |
| CC(COc1ccc(Cl)cc1Cl)N(C(=O)c1c(C(F)F)nn(C)c1F)C1CC1 (centres unmarked) [Example 187] | 100 |  | 100 | 100 | 95 | 95 | 4.16 | 100 |  | 100 | 100 | 100 | 100 | 90% |  |  |  |  |  |  |
| Cn1nc(C(F)F)c(C(=O)NC2CCCCC2CCC(C)(C)C)c1F (single isomer, unassigned) [Example 357] | 100 | 85 | 100 |  | 100 | 100 | 4.50 isomer A | 100 | 100 | 100 |  |  | 100 |  |  | 100 |  | 97 |  | 93 |
| CC(CCc1ccc(Cl)c(Cl)c1)N(C(=O)c1c(C(F)F)nn(C)c1F)C1CC1 (racemic) [Example 129] | 80 |  | 100 | 100 | 99 | 70 | 4.44 | 100 | 100 | 100 | 100 | 100 | 100 | 100% |  |  |  |  |  |  |
| Cn1nc(C(F)F)c(C(=O)N(CCOc2c(Cl)cccc2Cl)C2CC2)c1Cl [Example 161] | 80 |  | 100 |  |  | 90 | 3.69 | 100 |  |  |  | 86 |  | 90% |  |  |  |  |  |  |
| Cn1nc(C(F)F)c(C(=O)N(C2CC2)C2CCCCC2Cc2ccccc2)c1F (mixture of isomers) [Example 243] | 100 |  | 100 | 100 | 98 | 100 |  | 100 | 100 | 100 | 100 | 100 | 100 | 100% | 90 |  |  |  |  |  |
| Cn1nc(C(F)F)c(C(=O)N(CCOc2c(Cl)cccc2Cl)C2CC2)c1F [Example 162] | 90 |  | 95 |  |  | 80 | 3.55 | 100 |  | 95 |  | 100 |  | 90% |  |  | 100 |  | 100 |  |
| Cn1nc(C(F)F)c(C(=O)N(CC#Cc2ccccc2)C2CC2)c1F [Example 271] | 88 |  | 95 |  |  | 89 | 3.19 | 78 |  | 98 |  | 93 |  | 90% |  |  |  |  |  |  |
| CC(C)CC(C)C1CCCCC1NC(=O)c1c(C(F)F)nn(C)c1F (single isomer, unassigned) [Example 338] | 100 | 98 | 100 | 100 |  | 100 | 4.73 isomer B | 100 | 100 | 100 | 100 |  | 100 |  |  | 100 |  | 97 |  | 96 |
| CC(C)CC(C)C1CCCC1NC(=O)c1c(C(F)F)nn(C)c1F (mixture of isomers) [Example 315] | 100 |  | 100 | 100 | 100 | 95 |  | 100 | 100 | 71 |  |  | 100 |  | 70 | 100 |  | 95 | 100 | 97 |
| CCCCC1CCCC1NC(=O)c1c(C(F)F)nn(C)c1F (centres unmarked) [Example 306] |  |  | 100 | 100 | 70 | 95 | 3.59 | 100 | 100 | 95 | 100 |  | 99 |  | 94 | 100 |  | 95 |  | 95 |
